Laboratory results as given in patent US3933794A, “2-(2-Alkynylamino)-3H-1,4-benzodiazepines” (priority 1973, dated 1976).

Key:
Type in all cases: in vivo
[1] = system: mice; experiment: Antagonism to strychnine (as sulfate); conditions: Mus musculus, ip, 4 h, read-out: ED50 Str (strychnine antagonism)
Procedure: (§1) Sedative effects of the compounds of this invention are shown by the following tests in mice:
Antagonism to strychnine (as sulfate): The test consists in orally administering into groups of 6 mice the test compound, and 30 minutes later 3 mg./kg. strychnine sulfate intraperitoneally. The survivors after 4 hours reflect the activity of the compound as a muscle relaxant and antispasmodic. A dosage of 3 mg./kg. of strychnine sulfate is routinely fatal to all the control mice.

[2] = system: mice; experiment: Nicotine antagonism test; conditions: Mus musculus, ip, 0.5 h, intraperitoneal injection, nicotine salicylate 2 mg./kg. 30 minutes later, (3) = death, read-out: ED50 Ni (nicotine antagonism (3) test)
Procedure: as §1
Nicotine antagonism test: Mice in a group of 6 are injected with the text compound. Thirty minutes later the mice including control (untreated) mice are injected with nicotine salicylate (2 mg./kg.). The control mice show over-stimulation, i.e., (1) running convulsions followed by (2) tonic extensor filts; followed by (3) death.

[3] = system: mice; experiment: Chimney test; conditions: Mus musculus, ip, intraperitoneal injection, 50% of mice fail to back out of glass cylinder within 30 seconds, read-out: ED50 Ch (chimney test)
Description: as §1
Chimney test: [Med. Exp. 4, 145 (1961)]: The test determines the ability of mice to back up and out of a vertical glass cylinder within 30 seconds. At the effective dosage, 50% of the mice failed doing it.

[4] = system: mice; experiment: Dish test; conditions: Mus musculus, ip, 0.05 h, intraperitoneal injection, 50% of mice remain in dish for more than 3 minutes, read-out: ED50 D (dish test)
Procedure: as §1
Dish test: Mice in Petri dishes (10 cm. diameter, 5 cm. high, partially embedded in wood shavings), climb out in a very short time, when not treated. Mice remaining in the dish for more than 3 minutes indicates tranquilization. ED50 equals the dose of test compound at which 50% of the mice remain in the dish.

[5] = system: mice; experiment: Pedestal test; conditions: Mus musculus, ip, 1 min, intraperitoneal injection, mice stay on pedestal for more than 1 minute, read-out: ED50 P (pedestal test)
Procedure: as §1
Pedestal test: The untreated mouse leaves a standard pedestal in less than a minute to climb back to the floor of the standard mouse box. Tranquilized mice will stay on the pedestal for more than 1 minutes.

SMILES | ED50 [1] [mg/kg] | ED50 [2] [mg/kg] | ED50 [3] [mg/kg] | ED50 [4] [mg/kg] | ED50 [5] [mg/kg]
O=Cc1cnc2n1-c1ccc(Cl)cc1C(c1ccccc1)=NC2 [8-chloro-6-phenyl-4H-imidazo[1,2-a][1,4]benzodiazepine-1-carboxaldehyde] | 11 | 0.36 | 4 | 0.8 | 2.8
Cc1cnc2n1-c1ccc(Cl)cc1C(c1ccccc1Cl)=NC2 [8-chloro-6-(2-chlorophenyl)-1-methyl-4H-imidazo[1,2-a][1,4]benzodiazepine] | 1.8 | 0.13 | 0.5 | 0.23 | 0.4
Cc1cnc2n1-c1ccc(Cl)cc1C(c1ccccc1)=NC2 [8-chloro-1-methyl-6-phenyl-4H-imidazo[1,2-a]-[1,4]benzodiazepine] | 79 | 1.8 | 25 | 5 | 28
